# Data published in ChEMBL document CHEMBL5346907, “Discovery of a novel oral type Ⅰ CDK8 inhibitor against acute myeloid leukemia” (Eur J Med Chem, 2023).
# Calls of active or inactive are those of the source. No cut-off for these calls is given here.
# Key:
# HL-60 [1] = assay: Antiproliferative activity against human HL-60 cells incubated for 48 hrs by CCK8 assay; type: functional
# MV4-11 = assay: Antiproliferative activity against human MV4-11 cells incubated for 48 hrs by CCK8 assay; type: functional
# [2] = target: CDK8/Cyclin C (Homo sapiens) (UniProt P49336+P24863); assay: Inhibition of CDK8/Cyclin C (unknown origin) at 1 uM preincubated for 10 mins followed by substrate addition measured for 60 to 120 mins by HTRF assay relative to control; type: protein-complex assay; settings: time 70-130 min
# [3] = target: Cyclin-Y/Cyclin-dependent kinase 16 (Homo sapiens) (UniProt Q00536+Q8ND76); assay: Inhibition of CDK16/CyclinY (unknown origin) at 1 uM preincubated for 10 mins followed by substrate addition measured for 60 to 120 mins by HTRF assay relative to control; type: protein-complex assay; settings: time 70-130 min
# [4] = target: Cyclin-dependent kinase 13/Cyclin-K (Homo sapiens) (UniProt Q14004+O75909); assay: Inhibition of CDK13/Cyclin K (unknown origin) at 1 uM preincubated for 10 mins followed by substrate addition measured for 60 to 120 mins by HTRF assay relative to control; type: protein-complex assay; settings: time 70-130 min
# CDK6/cyclin D1 = CDK6/cyclin D1 (Homo sapiens, UniProt Q00534); assay: Inhibition of CDK6/Cyclin D1 (unknown origin) preincubated for 10 mins followed by substrate addition measured for 60 to 120 mins by HTRF assay; type: protein-complex assay
# [5] = target: Tyrosine-protein kinase JAK1 (Homo sapiens) (UniProt P23458); assay: Inhibition of JAK1 (unknown origin) at 1 uM preincubated for 10 mins followed by substrate addition measured for 60 to 120 mins by HTRF assay relative to control; settings: time 70-130 min
# [6] = target: Proto-oncogene tyrosine-protein kinase receptor Ret (Homo sapiens) (UniProt P07949); assay: Inhibition of RET (unknown origin) at 1 uM preincubated for 10 mins followed by substrate addition measured for 60 to 120 mins by HTRF assay relative to control; settings: time 70-130 min
# Proto-oncogene tyrosine-protein kinase receptor Ret (Homo sapiens), sequence (P07949 whole entry, the tested form may be a part): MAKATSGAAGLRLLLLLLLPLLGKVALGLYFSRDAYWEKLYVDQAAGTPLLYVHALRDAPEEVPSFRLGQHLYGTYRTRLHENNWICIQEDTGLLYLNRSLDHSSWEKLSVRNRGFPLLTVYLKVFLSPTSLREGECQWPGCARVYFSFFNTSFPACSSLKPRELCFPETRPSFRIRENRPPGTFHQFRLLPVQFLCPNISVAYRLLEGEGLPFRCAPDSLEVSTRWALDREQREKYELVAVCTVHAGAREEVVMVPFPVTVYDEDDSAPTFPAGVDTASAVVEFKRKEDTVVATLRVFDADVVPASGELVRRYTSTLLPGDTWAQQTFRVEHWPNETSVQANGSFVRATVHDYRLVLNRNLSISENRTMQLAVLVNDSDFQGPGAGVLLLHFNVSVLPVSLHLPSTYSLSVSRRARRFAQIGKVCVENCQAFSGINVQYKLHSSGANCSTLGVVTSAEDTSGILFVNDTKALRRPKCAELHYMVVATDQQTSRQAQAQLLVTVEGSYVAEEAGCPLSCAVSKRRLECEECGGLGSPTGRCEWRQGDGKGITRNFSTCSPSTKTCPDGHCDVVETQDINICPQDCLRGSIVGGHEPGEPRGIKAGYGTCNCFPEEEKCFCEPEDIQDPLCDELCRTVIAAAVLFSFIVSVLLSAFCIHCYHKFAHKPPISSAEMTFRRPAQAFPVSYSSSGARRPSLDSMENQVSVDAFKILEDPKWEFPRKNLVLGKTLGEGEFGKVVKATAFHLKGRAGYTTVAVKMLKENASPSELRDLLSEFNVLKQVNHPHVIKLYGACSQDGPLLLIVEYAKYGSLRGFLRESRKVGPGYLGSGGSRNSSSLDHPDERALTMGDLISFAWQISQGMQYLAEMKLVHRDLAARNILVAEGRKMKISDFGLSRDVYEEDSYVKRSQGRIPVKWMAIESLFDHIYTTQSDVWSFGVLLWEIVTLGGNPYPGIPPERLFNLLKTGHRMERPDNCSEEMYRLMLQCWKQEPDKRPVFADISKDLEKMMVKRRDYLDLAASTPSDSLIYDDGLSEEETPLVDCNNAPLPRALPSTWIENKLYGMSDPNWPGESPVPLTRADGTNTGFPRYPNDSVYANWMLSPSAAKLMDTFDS
# [7] = target: Epithelial discoidin domain-containing receptor 1 (Homo sapiens) (UniProt Q08345); assay: Inhibition of DDR1 (unknown origin) at 1 uM preincubated for 10 mins followed by substrate addition measured for 60 to 120 mins by HTRF assay relative to control; settings: time 70-130 min
# [8] = target: Ephrin type-A receptor 4 (Homo sapiens) (UniProt P54764); assay: Inhibition of EPHA4 (unknown origin) at 1 uM preincubated for 10 mins followed by substrate addition measured for 60 to 120 mins by HTRF assay relative to control; settings: time 70-130 min
# [9] = target: Tyrosine-protein kinase Lck (Homo sapiens) (UniProt P06239); assay: Inhibition of LCK (unknown origin) at 1 uM preincubated for 10 mins followed by substrate addition measured for 60 to 120 mins by HTRF assay relative to control; settings: time 70-130 min
# [10] = target: Ephrin type-A receptor 5 (Homo sapiens) (UniProt P54756); assay: Inhibition of EPHA5 (unknown origin) at 1 uM preincubated for 10 mins followed by substrate addition measured for 60 to 120 mins by HTRF assay relative to control; settings: time 70-130 min
# [11] = target: Proto-oncogene tyrosine-protein kinase Src (Homo sapiens) (UniProt P12931); assay: Inhibition of SRC (unknown origin) at 1 uM preincubated for 10 mins followed by substrate addition measured for 60 to 120 mins by HTRF assay relative to control; settings: time 70-130 min
# Proto-oncogene tyrosine-protein kinase Src (Homo sapiens), sequence (P12931 2-536 limits assumed): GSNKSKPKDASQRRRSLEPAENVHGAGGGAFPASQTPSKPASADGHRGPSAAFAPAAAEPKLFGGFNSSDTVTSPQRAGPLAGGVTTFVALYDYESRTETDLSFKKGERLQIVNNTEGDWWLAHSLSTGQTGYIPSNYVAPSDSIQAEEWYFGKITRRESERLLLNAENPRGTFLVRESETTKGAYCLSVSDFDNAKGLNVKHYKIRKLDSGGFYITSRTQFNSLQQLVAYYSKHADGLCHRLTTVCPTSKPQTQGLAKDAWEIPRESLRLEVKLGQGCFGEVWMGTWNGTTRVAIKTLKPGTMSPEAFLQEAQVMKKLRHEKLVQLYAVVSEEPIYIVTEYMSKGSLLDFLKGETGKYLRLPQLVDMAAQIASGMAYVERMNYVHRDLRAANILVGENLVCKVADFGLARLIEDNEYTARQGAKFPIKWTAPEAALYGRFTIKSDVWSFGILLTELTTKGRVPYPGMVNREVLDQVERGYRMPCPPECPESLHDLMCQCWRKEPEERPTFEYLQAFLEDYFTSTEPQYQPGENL
# [12] = target: Ephrin type-A receptor 1 (Homo sapiens) (UniProt P21709); assay: Inhibition of EPHA1 (unknown origin) at 1 uM preincubated for 10 mins followed by substrate addition measured for 60 to 120 mins by HTRF assay relative to control; settings: time 70-130 min
# [13] = target: Tyrosine-protein kinase Yes (Homo sapiens) (UniProt P07947); assay: Inhibition of YES (unknown origin) at 1 uM preincubated for 10 mins followed by substrate addition measured for 60 to 120 mins by HTRF assay relative to control; settings: time 70-130 min
# [14] = target: Tyrosine-protein kinase ZAP-70 (Homo sapiens) (UniProt P43403); assay: Inhibition of ZAP70 (unknown origin) at 1 uM preincubated for 10 mins followed by substrate addition measured for 60 to 120 mins by HTRF assay relative to control; settings: time 70-130 min
# Tyrosine-protein kinase ZAP-70 (Homo sapiens), sequence (P43403 whole entry): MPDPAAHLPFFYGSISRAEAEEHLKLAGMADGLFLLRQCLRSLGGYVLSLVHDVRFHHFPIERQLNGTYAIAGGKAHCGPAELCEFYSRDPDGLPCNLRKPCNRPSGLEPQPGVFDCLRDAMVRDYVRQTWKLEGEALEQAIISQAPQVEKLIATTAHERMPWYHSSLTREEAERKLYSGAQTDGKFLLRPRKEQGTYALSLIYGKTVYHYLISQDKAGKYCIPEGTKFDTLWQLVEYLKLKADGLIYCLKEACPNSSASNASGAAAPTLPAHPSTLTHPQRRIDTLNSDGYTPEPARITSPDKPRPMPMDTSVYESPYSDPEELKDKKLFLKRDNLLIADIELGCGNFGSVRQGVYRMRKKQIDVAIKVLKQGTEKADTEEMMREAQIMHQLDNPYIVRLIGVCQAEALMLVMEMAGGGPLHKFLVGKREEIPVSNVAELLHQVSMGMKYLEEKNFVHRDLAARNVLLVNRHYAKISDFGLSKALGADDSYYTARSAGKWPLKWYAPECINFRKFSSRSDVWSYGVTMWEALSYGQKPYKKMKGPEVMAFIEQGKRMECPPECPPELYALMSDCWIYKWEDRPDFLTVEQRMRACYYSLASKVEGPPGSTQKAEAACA
# [15] = target: Tyrosine-protein kinase Tec (Homo sapiens) (UniProt P42680); assay: Inhibition of TEC (unknown origin) at 1 uM preincubated for 10 mins followed by substrate addition measured for 60 to 120 mins by HTRF assay relative to control; settings: time 70-130 min
# [16] = target: Ephrin type-A receptor 2 (Homo sapiens) (UniProt P29317); assay: Inhibition of EPHA2 (unknown origin) at 1 uM preincubated for 10 mins followed by substrate addition measured for 60 to 120 mins by HTRF assay relative to control; settings: time 70-130 min
# Ephrin type-A receptor 2 (Homo sapiens), sequence (P29317 whole entry): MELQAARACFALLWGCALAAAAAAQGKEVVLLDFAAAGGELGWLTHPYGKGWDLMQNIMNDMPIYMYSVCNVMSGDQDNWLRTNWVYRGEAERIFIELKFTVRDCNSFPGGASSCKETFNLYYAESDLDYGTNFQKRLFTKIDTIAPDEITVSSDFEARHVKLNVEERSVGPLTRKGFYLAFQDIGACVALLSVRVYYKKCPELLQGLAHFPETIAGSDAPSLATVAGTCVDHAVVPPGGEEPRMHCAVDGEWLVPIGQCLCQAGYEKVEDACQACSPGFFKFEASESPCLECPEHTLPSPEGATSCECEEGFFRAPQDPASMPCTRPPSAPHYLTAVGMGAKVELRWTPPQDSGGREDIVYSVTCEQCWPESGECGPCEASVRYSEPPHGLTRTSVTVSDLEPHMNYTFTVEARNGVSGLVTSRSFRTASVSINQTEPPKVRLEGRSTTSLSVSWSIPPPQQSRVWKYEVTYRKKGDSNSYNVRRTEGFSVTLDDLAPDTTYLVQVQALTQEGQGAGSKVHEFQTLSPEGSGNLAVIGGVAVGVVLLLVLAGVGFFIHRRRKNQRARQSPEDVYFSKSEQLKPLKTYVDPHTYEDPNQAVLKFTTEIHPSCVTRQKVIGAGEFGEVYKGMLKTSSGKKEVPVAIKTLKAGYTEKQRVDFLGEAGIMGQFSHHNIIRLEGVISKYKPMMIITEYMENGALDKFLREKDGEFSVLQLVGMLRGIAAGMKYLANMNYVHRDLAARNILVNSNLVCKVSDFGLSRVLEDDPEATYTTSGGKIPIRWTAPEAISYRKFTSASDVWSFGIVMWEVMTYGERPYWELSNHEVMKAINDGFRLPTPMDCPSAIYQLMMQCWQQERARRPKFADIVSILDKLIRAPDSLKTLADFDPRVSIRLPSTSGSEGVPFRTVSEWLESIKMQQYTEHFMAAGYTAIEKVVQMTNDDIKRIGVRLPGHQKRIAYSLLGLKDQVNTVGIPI
# [17] = target: Tyrosine-protein kinase Mer (Homo sapiens) (UniProt Q12866); assay: Inhibition of MER (unknown origin) at 1 uM preincubated for 10 mins followed by substrate addition measured for 60 to 120 mins by HTRF assay relative to control; settings: time 70-130 min
# Tyrosine-protein kinase Mer (Homo sapiens), sequence (Q12866 whole entry): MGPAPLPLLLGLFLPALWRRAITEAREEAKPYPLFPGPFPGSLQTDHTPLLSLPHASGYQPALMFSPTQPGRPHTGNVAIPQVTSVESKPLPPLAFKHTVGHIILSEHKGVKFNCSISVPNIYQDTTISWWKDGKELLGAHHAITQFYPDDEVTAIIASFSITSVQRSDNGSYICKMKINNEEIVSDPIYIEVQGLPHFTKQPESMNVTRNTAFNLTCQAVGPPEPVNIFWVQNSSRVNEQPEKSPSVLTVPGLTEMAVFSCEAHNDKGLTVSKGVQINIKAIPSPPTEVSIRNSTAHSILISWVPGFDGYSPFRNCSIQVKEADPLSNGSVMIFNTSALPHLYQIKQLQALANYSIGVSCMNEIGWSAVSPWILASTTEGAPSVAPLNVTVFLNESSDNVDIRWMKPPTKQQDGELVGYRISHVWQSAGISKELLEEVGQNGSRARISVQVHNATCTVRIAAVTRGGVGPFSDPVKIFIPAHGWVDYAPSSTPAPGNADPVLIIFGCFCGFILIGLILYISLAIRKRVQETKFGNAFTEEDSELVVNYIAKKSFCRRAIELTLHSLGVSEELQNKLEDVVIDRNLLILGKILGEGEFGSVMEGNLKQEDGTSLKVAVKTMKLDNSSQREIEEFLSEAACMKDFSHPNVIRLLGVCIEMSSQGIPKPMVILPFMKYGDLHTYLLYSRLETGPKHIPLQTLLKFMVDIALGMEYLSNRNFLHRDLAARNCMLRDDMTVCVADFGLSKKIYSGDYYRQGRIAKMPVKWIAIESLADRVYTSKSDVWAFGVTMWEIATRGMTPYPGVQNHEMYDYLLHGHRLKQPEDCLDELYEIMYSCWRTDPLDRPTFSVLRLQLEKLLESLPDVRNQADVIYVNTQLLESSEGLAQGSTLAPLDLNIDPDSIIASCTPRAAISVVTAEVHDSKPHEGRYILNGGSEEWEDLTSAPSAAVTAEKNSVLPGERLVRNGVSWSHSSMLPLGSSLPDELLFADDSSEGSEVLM
# [18] = target: Cyclin-dependent kinase 8 (Homo sapiens, UniProt P49336); assay: Binding affinity to CDK8 in human HCT-116 cells upto 4 uM incubated for 12 hrs by biotin pull down based Western blot analysis; type: cell-based
# Cyclin-dependent kinase 8, sequence (P49336 whole entry): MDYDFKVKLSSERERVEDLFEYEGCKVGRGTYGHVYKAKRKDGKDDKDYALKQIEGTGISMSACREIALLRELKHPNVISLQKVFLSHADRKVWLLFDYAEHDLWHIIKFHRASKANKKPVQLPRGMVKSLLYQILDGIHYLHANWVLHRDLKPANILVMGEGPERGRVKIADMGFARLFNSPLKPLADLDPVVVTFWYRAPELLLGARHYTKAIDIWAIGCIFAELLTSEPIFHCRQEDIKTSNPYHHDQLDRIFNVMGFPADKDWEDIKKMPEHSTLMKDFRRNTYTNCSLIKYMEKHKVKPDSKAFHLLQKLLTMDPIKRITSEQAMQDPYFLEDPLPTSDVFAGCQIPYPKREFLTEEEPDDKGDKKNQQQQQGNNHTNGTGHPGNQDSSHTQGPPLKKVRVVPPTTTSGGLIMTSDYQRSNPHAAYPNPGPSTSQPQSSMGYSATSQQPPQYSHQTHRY
# HCT-116 [19] = assay: Downregulation of STAT1 S727 expression in IFNgamma-stimulated human HCT-116 cells incubated for 12 hrs followed by IFNgamma stimulation for 3 hrs by Western blot analysis; type: functional, cell-based; settings: dose 1-10 µM
# HCT-116 [20] = assay: Downregulation of STAT5 S726 phosphorylation in human HCT-116 cells incubated for 12 hrs by Western blot analysis; type: functional, cell-based; settings: dose 1-10 µM
# HL-60 [21] = assay: Induction of apoptosis in human HL-60 cells assessed as early apoptosis cells at 1 uM incubated for 48 hrs by annexin V-FITC/PI staining based flow cytometry (reference value: 2.08 %); type: functional
# HL-60 [22] = assay: Induction of apoptosis in human HL-60 cells assessed as viable cells at 5 uM incubated for 48 hrs by annexin V-FITC/PI staining based flow cytometry (reference value: 96.5 %); type: functional; settings: read-out: Activity
# HL-60 [23] = assay: Induction of apoptosis in human HL-60 cells assessed as late apoptotic cells at 5 uM incubated for 48 hrs by annexin V-FITC/PI staining based flow cytometry (reference value: 1.07 %); type: functional
# HL-60 [24] = assay: Induction of apoptosis in human HL-60 cells assessed as early apoptosis cells at 10 uM incubated for 48 hrs by annexin V-FITC/PI staining based flow cytometry (reference value: 2.08 %); type: functional
# HL-60 [25] = assay: Induction of apoptosis in human HL-60 cells assessed as necrotic cells at 10 uM incubated for 48 hrs by annexin V-FITC/PI staining based flow cytometry (reference value: 0.26 %); type: functional
# [26] = Cmax in Sprague-Dawley rat at 10 mg/kg, po; type: ADME, organism-based; design: dose 10 mg/kg, route po; settings: in vivo
# [27] = Clearance in Sprague-Dawley rat at 10 mg/kg, po; type: ADME, organism-based; settings: in vivo
# [28] = Half life in Sprague-Dawley rat at 2 mg/kg, iv; type: ADME, organism-based; settings: in vivo
# C1498 = assay: Downregulation of STAT5 S726 expression in mouse C1498 cells allografted in AML Balb/C mouse model administered orally daily for 15 days measured after 3 weeks by Western blot analysis; type: functional, cell-based; settings: dose 40-80 mg/kg, route po, time 15.0 day
smiles,measurement,setting,value
NC(=O)c1cccc(-c2cnc3[nH]ccc3c2)c1,GI50,HL-60 [1],1 µM
same,GI50,MV4-11,4.61 µM
same,inhibition,[2],38.9%
same,inhibition,[3],16.6%
same,inhibition,[4],9.63%
same,IC50,CDK6/cyclin D1,0.594 µM
same,inhibition,[5],31.5%
same,inhibition,[6],23.9%
same,inhibition,[7],20%
same,inhibition,[8],1.96%
same,inhibition,[9],1.59%
same,inhibition,[10],1%
same,inhibition,[11],0%
same,inhibition,[12],0%
same,inhibition,[13],0%
same,inhibition,[14],0%
same,inhibition,[15],0%
same,inhibition,[16],0%
same,inhibition,[17],0%
same,Activity,[18],Active
same,Activity,HCT-116 [19],Dose-Dependent Effect
same,Activity,HCT-116 [20],Dose-Dependent Effect
same,Activity,HL-60 [21],79.4%
same,viability at 5 µM,HL-60 [22],9.73%
same,Activity,HL-60 [23],1.45%
same,Activity,HL-60 [24],0.15%
same,Activity,HL-60 [25],1.79%
same,Cmax,[26],206 ng/mL
same,CL/F,[27],285 mL/min/kg
same,half-life,[28],48.6 min
same,Activity,C1498,Dose-Dependent Effect
